Where “and” joins values, the source holds several entries; their conditions need not be identical. Equal entries are not always repeated.
Test system: NCI-H1341 complex spheroids, percent test/control
Assay: Anticancer human tumor NCI-H1341 cell line growth inhibition [AhR];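 note: spheroids exposed to agents for seven days before readout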
Conditions: for viability, T/C: stronger effect = lower value
Source text: Multicellular complex tumor spheroid response to aryl hydrocarbon receptor antagonists in combination with a variety of drugs and investigational agents in selected tumor cell lines
The current study was undertaken to assess response to aryl hydrocarbon receptor antagonists in combination with standard-of-care drugs and investigational agents in solid tumor complex spheroid models. Complex spheroids include a stromal component modeled by human endothelial cells (HUVEC) and fibroblasts modeled by human mesenchymal stem cells (MSCs). The concentration ranges selected for each drug and investigational agent were based upon clinically achievable concentrations if the clinical Cmax of the agent was known.
Compounds. The drugs and investigational agents: BAY 2416964 (NSC825713), GNF351 (NSC835774), CH-223191 (NSC835775), CPI-455 (NSC825282), aza-TdCyd (NSC777586), decitabine (NSC127716), belinostat (NSC758774), entinostat (NSC756642), pevonedistat (NSC761192), tazemetostat (NSC777109), talazoparib (NSC765396), olaparib (NSC753686), selinexor (NSC780203), nedisertib (M3814, NSC802822), bortezomib (NSC756655), venetoclax (NSC766270), doxorubicin (NSC123127), elimusertib (BAY189344, NSC800525), ceralasertib (AZD6738, NSC777638), TAK-243 (NSC785004), alisertib (NSC759677), etoposide (NSC141540), topotecan (NSC609699), eribulin (NSC707389), gemcitabine (NSC613327), carboplatin (NSC241240), cisplatin (NSC119875), and SN-38 (NSC673596) were obtained from the National Cancer Institute (NCI) Developmental Therapeutics Program Chemical Repository (32). The FDA-approved anticancer drug set is available from the Developmental Therapeutics Program at https://dtp.cancer.gov/organization/dscb/obtaining/available plates.htm. […] The stock solutions were prepared in dimethyl sulfoxide (DMSO, Sigma-Aldrich, St. Louis, MO, cat. D2650), except for the platinum compounds which were prepared in saline (Quality Biological, Gaithersburg, MD, cat. 114-055-101), at 800-fold the tested concentration and stored at -70 degrees C prior to their use. All drugs and investigational agents were tested over a range starting from a high concentration at or near the clinical Cmax and decreasing in half-log increments. If the clinical Cmax for an agent had not been determined, the highest concentration tested was 10 microM (Table 1).
Cell Culture. All cells were maintained in an incubator at 37 degrees C and 5% CO2 with 95% humidity. The PDC lines were cultured according to standard operating procedures established by the NCI PDMR (https://pdmr.cancer.gov). Briefly, all PDCs were thawed and cultured in Matrigel-coated flasks prepared with a working solution of 1X Ham's F-12 nutrient mix, without supplementation (Invitrogen, Waltham, MA, cat. 11765054), 100 U/mL penicillin-streptomycin (Invitrogen, cat. 15140122), and 2.5% Matrigel (Corning Inc., Corning, NY, cat. 354248) for the first three passages. All PDCs were cultured in complete DMEM/F-12 media containing advanced DMEM/F-12 (Invitrogen, cat. 12634028), 4.9% defined fetal bovine serum, heat inactivated (HyClone Laboratories Inc., Logan, UT, cat. SH30070.03HI), 389 ng/mL hydrocortisone (Sigma-Aldrich, cat. H4001), 9.7 ng/mL human EGF recombinant protein (Invitrogen, cat. PHG0313), 23.4 microg/mL adenine (Sigma-Aldrich, cat. A2786), 97.3 U/mL penicillin-streptomycin (Invitrogen, cat. 15140122), 1.9 mM L-glutamine (Invitrogen, cat. 25030081), and 9.7 microM Y-27632 dihydrochloride (Tocris Bioscience, Bristol, United Kingdom, cat. 1254). The PDCs were cultured in complete DMEM/F12 media without 10 microM Y-27632 dihydrochloride for at least two passages prior to the screen. The established cell lines NCI-H1341 and […] were cultured in DMEM/F-12, HEPES (Invitrogen, cat. 11330032), 5% defined fetal bovine serum (HyClone Laboratories Inc., cat. SH30070.03), ITS premix universal culture supplement [insulin (5 microg/mL), transferrin (5 microg/mL), and selenious acid (5 ng/mL)] […]

[1] = curve of first compound, second compound 0.1 µM
[2] = curve of first compound, second compound 0.316 µM
[3] = curve of first compound, second compound 1 µM
[4] = curve of first compound, second compound 3.16 µM
[5] = curve of first compound, second compound 10 µM
[6] = second compound 0.1 µM, first compound 0.0316 µM
[7] = second compound 0.1 µM, first compound 0.1 µM
[8] = second compound 0.1 µM, first compound 0.316 µM
[9] = second compound 0.1 µM, first compound 1 µM
[10] = second compound 0.1 µM, first compound 3.16 µM
[11] = second compound 0.1 µM, first compound 10 µM
[12] = second compound 0.316 µM, first compound 0.0316 µM
[13] = second compound 0.316 µM, first compound 0.1 µM
[14] = second compound 0.316 µM, first compound 0.316 µM
[15] = second compound 0.316 µM, first compound 1 µM
[16] = second compound 0.316 µM, first compound 3.16 µM
[17] = second compound 0.316 µM, first compound 10 µM
[18] = second compound 1 µM, first compound 0.0316 µM
[19] = second compound 1 µM, first compound 0.1 µM
[20] = second compound 1 µM, first compound 0.316 µM
[21] = second compound 1 µM, first compound 1 µM
[22] = second compound 1 µM, first compound 3.16 µM
[23] = second compound 1 µM, first compound 10 µM
[24] = second compound 3.16 µM, first compound 0.0316 µM
[25] = second compound 3.16 µM, first compound 0.1 µM
[26] = second compound 3.16 µM, first compound 0.316 µM
[27] = second compound 3.16 µM, first compound 1 µM
[28] = second compound 3.16 µM, first compound 3.16 µM
[29] = second compound 3.16 µM, first compound 10 µM
[30] = second compound 10 µM, first compound 0.0316 µM
[31] = second compound 10 µM, first compound 0.1 µM
[32] = second compound 10 µM, first compound 0.316 µM
[33] = second compound 10 µM, first compound 1 µM
[34] = second compound 10 µM, first compound 3.16 µM
[35] = second compound 10 µM, first compound 10 µM

Structure (SMILES) | IC50 [1] [nM] | IC50 [2] [nM] | IC50 [3] [nM] | IC50 [4] [nM] | IC50 [5] [nM] | viability, T/C [6] [%] | viability, T/C [7] [%] | viability, T/C [8] [%] | viability, T/C [9] [%] | viability, T/C [12] [%] | viability, T/C [13] [%] | viability, T/C [14] [%] | viability, T/C [15] [%] | viability, T/C [18] [%] | viability, T/C [19] [%] | viability, T/C [20] [%] | viability, T/C [21] [%] | viability, T/C [24] [%] | viability, T/C [25] [%] | viability, T/C [26] [%] | also measured
CCN(c1cc(-c2ccc(CN3CCOCC3)cc2)cc(C(=O)NCc2c(C)cc(C)[nH]c2=O)c1C)C1CCOCC1 | – | – | – | – | – | – | – | – | – | – | – | – | – | – | – | – | – | – | – | – | viability, T/C (compound 0.00949 µM): 94.3% and 103% and 94.7%; viability, T/C (compound 0.03 µM): 84.3% and 90.7% and 97%; viability, T/C (compound 0.0949 µM): 101% and 87.8% and 83%; viability, T/C (compound 0.3 µM): 85% and 87.6% and 82.2%; viability, T/C (compound 0.949 µM): 79.2% and 119% and 90.2%; viability, T/C (compound 3 µM): 90.2% and 89.3% and 73.7%; IC50 (curve of compound): > 3000 nM
COc1ccc([C@@H](O)c2cc(-c3ncnc4cc(N5CCOCC5)ccc34)c(F)cc2Cl)nn1 + Cc1cncc(-c2nc(NCCc3c[nH]c4ccccc34)c3ncn(C(C)C)c3n2)c1 | 1080 | 592 | 687 | 365 | < 31.6 | 83.7 | 75.9 | 75.9 | 49.9 | 76.3 | 69.3 | 59.9 | 42.6 | 68 | 62.3 | 61.8 | 44.6 | 71.8 | 67.6 | 46 | viability, T/C [10]: 24.6%; viability, T/C [11]: 5.31%; viability, T/C [16]: 20.3%; viability, T/C [17]: 5.39%; viability, T/C [22]: 17.4%; viability, T/C [23]: 5.3%; viability, T/C [27]: 42.1%; viability, T/C [28]: 16.2%; viability, T/C [29]: 4.69%; viability, T/C [30]: 18.4%; viability, T/C [31]: 16.3%; viability, T/C [32]: 13.7%; viability, T/C [33]: 7.45%; viability, T/C [34]: 5.7%; viability, T/C [35]: 3.93%
Nc1ncn(C2CC(O)C(CO)O2)c(=O)n1 (configuration not stated) + CC(CO)NC(=O)c1cc(-c2ccc(Cl)cc2)nn(-c2cnn(C)c2)c1=O | 154 | 179 | 85.3 | 207 | 215 | 81.8 | 59.3 | 34.2 | 26.6 | 85.2 | 61.8 | 39.1 | 31.8 | 81.3 | 45 | 32.5 | 33.7 | 67.1 | 66.3 | 40.6 | viability, T/C (second compound 0.1 µM, first compound 0.00316 µM): 76.5%; viability, T/C (second compound 0.1 µM, first compound 0.01 µM): 85.7%; viability, T/C (second compound 0.316 µM, first compound 0.00316 µM): 92.1%; viability, T/C (second compound 0.316 µM, first compound 0.01 µM): 99%; viability, T/C (second compound 1 µM, first compound 0.00316 µM): 92.2%; viability, T/C (second compound 1 µM, first compound 0.01 µM): 86.3%; viability, T/C (second compound 3.16 µM, first compound 0.00316 µM): 79.8%; viability, T/C (second compound 3.16 µM, first compound 0.01 µM): 65.6%; viability, T/C [27]: 30.9%; viability, T/C (second compound 10 µM, first compound 0.00316 µM): 82.1%; viability, T/C (second compound 10 µM, first compound 0.01 µM): 69.6%; viability, T/C [30]: 79.8%; viability, T/C [31]: 67.5%; viability, T/C [32]: 41%; viability, T/C [33]: 27.2%
CC1COCCN1c1cc(C2(S(C)(=N)=O)CC2)nc(-c2ccnc3[nH]ccc23)n1 (configuration not stated) + Cc1cncc(-c2nc(NCCc3c[nH]c4ccccc34)c3ncn(C(C)C)c3n2)c1 | 3650 | 1970 | 3450 | 1820 | < 31.6 | 81.4 | 85.2 | 71.1 | 71.5 | 87.9 | 84.1 | 75.1 | 62.1 | 89.9 | 83.6 | 70.3 | 75.1 | 54.7 | 66.3 | 65.6 | viability, T/C [10]: 54.6%; viability, T/C [11]: 21.9%; viability, T/C [16]: 41.6%; viability, T/C [17]: 20.6%; viability, T/C [22]: 51.7%; viability, T/C [23]: 22.8%; viability, T/C [27]: 62.9%; viability, T/C [28]: 38.5%; viability, T/C [29]: 25.6%; viability, T/C [30]: 40.5%; viability, T/C [31]: 30.7%; viability, T/C [32]: 39.2%; viability, T/C [33]: 29.1%; viability, T/C [34]: 26.3%; viability, T/C [35]: 13.9%
